Measurements reported in patent US20200331882A1, “COMPOUND FOR SIMULTANEOUSLY INHIBITING LSD1 AND HDAC TARGETS AND APPLICATION THEREOF” (PEKING UNIVERSITY SHENZHEN GRADUATE SCHOOL, priority 2018, published 2020).
pIC50: −log10 of the molar value. Like-named read-outs stand apart in the source and are kept apart here. One block for each compound: values may come before it.

How the values were obtained:
Assay in all cases: CellTiter-Glo cell proliferation
Assay type in all cases: cell-based
NCI-H1417 = conditions: CTG, 72 hours; for % inhibition at top conc.: highest concentration 10/50 μM; for pIC50: read-out: Absolute IC50
Protocol: (§1) The effect of the present invention compound ZZY-003 on the cell proliferation of 50 cell lines was evaluated by CellTiter-Glo (CTG) method, and the 50% inhibitory concentration was calculated by detecting the cell viability after treatment with different drug concentrations. The cells were resuscitated and cultured in their respective culture media. The cells in logarithmic growth phase were harvested and the cells were counted by cell counter. The cell viability was detected by Trypan blue exclusion method to ensure that the cell line viability was more than 96%. The cell concentration was adjusted by diluting with the culture medium, and 90 μL cell suspension was added to the 96-well cell plate (including the cell control T0 on the day of drug treatment) to make the cell density reach the specified concentration. The cells in the 96-well plate were cultured overnight at 37° C., 5% CO2 and 95% humidity. 10 μL culture medium was added to the control cell culture plate. CellTiter-Glo reagent and cell culture plate were placed at room temperature to balance for 30 minutes. The same volume of CellTiter-Glo reagent was added to each well. Vibrate on the orbital shaker for 2 min to make the cells fully lytic. The cell culture plate was placed at room temperature to balance for 10 minutes. Chemiluminescence values were read with EnVision. The storage solution was formed by dissolving the tested compound with the corresponding solvent and diluted in gradient to obtain 10 times working concentration solution, and 10 times solution of positive drug was also prepared. 10 μL drug solution was added to each well in the 96-well plate in which the cells were inoculated, and each cell concentration was provided with three duplicate wells. The highest concentration of the tested compound was 10/50 μM, 9 concentrations and 3.16 times dilution. The cells in the 96-well plate added with drug were cultured at 37° C., 5% CO2 and 95% humidity for 72 hours. CellTiter-Glo reagent and drug-treated cell culture plate were placed at room temperature to balance for 30 minutes. The same volume of CellTiter-Glo reagent was added to each well. Vibrate on the orbital shaker for 2 minutes to make the cells fully lytic. The cell culture plate was placed at room temperature to balance for 10 minutes. Chemiluminescence values were read with EnVision. Data processing: […] Cell survival rate (%)=(Lum drug to be detected−Lum culture medium control)/(Lum cell control−Lum culture medium control)×100%; Lum cell control−Lum culture medium control was set to 100%, LumMedium control value was set to 0%;

HuCCT1 = conditions: 72 hours; for % inhibition at top conc.: highest concentration 10/50 μM; for pIC50: read-out: Absolute IC50
Protocol: as §1

B16-F10 = conditions: CTG, 72 hours; for % inhibition at top conc.: highest concentration 10/50 μM; for pIC50: read-out: Absolute IC50
Protocol: as §1

A549 = conditions: CTG, 72 hours; for % inhibition at top conc.: highest concentration 10/50 μM
Protocol: as §1

SF268 = conditions: 72 hours; for % inhibition at top conc.: highest concentration 10/50 μM; for pIC50: read-out: Absolute IC50
Protocol: as §1

MDA-MB-453 = conditions: CTG, 72 hours; for % inhibition at top conc.: highest concentration 10/50 μM; for pIC50: read-out: Absolute IC50
Protocol: as §1

AN3 CA = conditions: CTG, 72 hours; for % inhibition at top conc.: highest concentration 10/50 μM; for pIC50: read-out: Absolute IC50
Protocol: as §1

LN-229 = conditions: CTG, 72 hours; for % inhibition at top conc.: highest concentration 10/50 μM; for pIC50: read-out: Absolute IC50
Protocol: as §1

U266B1 = conditions: CTG, 72 hours; for % inhibition at top conc.: highest concentration 10/50 μM; for pIC50: read-out: Absolute IC50
Protocol: as §1

SK-MEL-28 = conditions: CTG, 72 hours; for % inhibition at top conc.: highest concentration 10/50 μM; for pIC50: read-out: Absolute IC50
Protocol: as §1

NCI-H1299 = conditions: CTG, 72 hours; for % inhibition at top conc.: highest concentration 10/50 μM; for pIC50: read-out: Absolute IC50
Protocol: as §1

MIA PaCa-2 = conditions: CTG, 72 hours; for % inhibition at top conc.: highest concentration 10/50 μM; for pIC50: read-out: Absolute IC50
Protocol: as §1

DLD-1 = conditions: CTG, 72 hours; for % inhibition at top conc.: highest concentration 10/50 μM; for pIC50: read-out: Absolute IC50
Protocol: as §1

AMO-1 = conditions: 72 hours; for % inhibition at top conc.: highest concentration 10/50 μM; for pIC50: read-out: Absolute IC50
Protocol: as §1

CNE-2Z = conditions: CTG, 72 hours; for % inhibition at top conc.: highest concentration 10/50 μM; for pIC50: read-out: Absolute IC50
Protocol: as §1

SK-N-FI = conditions: CTG, 72 hours; for % inhibition at top conc.: highest concentration 10/50 μM; for pIC50: read-out: Absolute IC50
Protocol: as §1

HT-1376 = conditions: CTG, 72 hours; for % inhibition at top conc.: highest concentration 10/50 μM; for pIC50: read-out: Absolute IC50
Protocol: as §1

EBC-1 = conditions: CTG, 72 hours; for % inhibition at top conc.: highest concentration 10/50 μM; for pIC50: read-out: Absolute IC50
Protocol: as §1

SNU-761 = conditions: CTG, 72 hours; for % inhibition at top conc.: highest concentration 10/50 μM; for pIC50: read-out: Absolute IC50
Protocol: as §1

Hep G2 = conditions: 72 hours; for % inhibition at top conc.: highest concentration 10/50 μM; for pIC50: read-out: Absolute IC50
Protocol: as §1

786-O = conditions: 72 hours; for % inhibition at top conc.: highest concentration 10/50 μM; for pIC50: read-out: Absolute IC50
Protocol: as §1

MCF 10A = conditions: CTG, 72 hours; for % inhibition at top conc.: highest concentration 10/50 μM; for pIC50: read-out: Absolute IC50
Protocol: as §1

H69AR = conditions: CTG, 72 hours; for % inhibition at top conc.: highest concentration 10/50 μM; for pIC50: read-out: Absolute IC50
Protocol: as §1

SW480 = conditions: CTG, 72 hours; for % inhibition at top conc.: highest concentration 10/50 μM; for pIC50: read-out: Absolute IC50
Protocol: as §1

Ramos = conditions: CTG, 72 hours; for % inhibition at top conc.: highest concentration 10/50 μM; for pIC50: read-out: Absolute IC50
Protocol: as §1

BT474 = conditions: 72 hours; for % inhibition at top conc.: highest concentration 10/50 μM; for pIC50: read-out: Absolute IC50
Protocol: as §1

MDA-MB-231 = conditions: CTG, 72 hours; for % inhibition at top conc.: highest concentration 10/50 μM
Protocol: as §1

SNU-5 = conditions: CTG, 72 hours; for % inhibition at top conc.: highest concentration 10/50 μM; for pIC50: read-out: Absolute IC50
Protocol: as §1

K-562 = conditions: 72 hours; for % inhibition at top conc.: highest concentration 10/50 μM; for pIC50: read-out: Absolute IC50
Protocol: as §1

[1] = Homo sapiens, read-out: Absolute IC50

Structure (SMILES): N.N.[Cl][Pt][Cl] [Cisplatin, reference compound]
% inhibition at top conc. (NCI-H1417): 81.11%
pIC50 (NCI-H1417): 5.36
% inhibition at top conc. (HuCCT1; CTG): 89.54%
pIC50 (HuCCT1; CTG): 4.95
% inhibition at top conc. (B16-F10): 99.97%
pIC50 (B16-F10): 5.34
% inhibition at top conc. (A549): 96.72%
% inhibition at top conc. (SF268; CTG): 97.98%
pIC50 (SF268; CTG): 5.54
% inhibition at top conc. (MDA-MB-453): 95.15%
pIC50 (MDA-MB-453): 4.89
% inhibition at top conc. (AN3 CA): 99.96%
pIC50 (AN3 CA): 5.35
% inhibition at top conc. (LN-229): 97.32%
pIC50 (LN-229): 4.93
% inhibition at top conc. (U266B1): 98.85%
pIC50 (U266B1): 4.84
% inhibition at top conc. (SK-MEL-28): 99.34%
pIC50 (SK-MEL-28): 5.06
% inhibition at top conc. (NCI-H1299): 98.91%
pIC50 (NCI-H1299): 5.43
% inhibition at top conc. (MIA PaCa-2): 99.18%
pIC50 (MIA PaCa-2): 5.22
% inhibition at top conc. (DLD-1): 98.93%
pIC50 (DLD-1): 5.28
% inhibition at top conc. (AMO-1; CTG): 99.99%
pIC50 (AMO-1; CTG): 6.02
% inhibition at top conc. (CNE-2Z): 96.44%
pIC50 (CNE-2Z): 5.93
% inhibition at top conc. (SK-N-FI): 99.81%
pIC50 (SK-N-FI): 4.99
% inhibition at top conc. (HT-1376): 88.74%
pIC50 (HT-1376): 5.39
% inhibition at top conc. (EBC-1): 85.11%
pIC50 (EBC-1): 4.75
% inhibition at top conc. (SNU-761): 99.92%
pIC50 (SNU-761): 5.34
% inhibition at top conc. (Hep G2; CTG): 90.70%
pIC50 (Hep G2; CTG): 5.23
% inhibition at top conc. (786-O; CTG): 97.88%
pIC50 (786-O; CTG): 5.68
% inhibition at top conc. (MCF 10A): 99.51%
pIC50 (MCF 10A): 4.88
% inhibition at top conc. (H69AR): 94.93%
pIC50 (H69AR): 5.25
% inhibition at top conc. (SW480): 94.12%
pIC50 (SW480): 5.57
% inhibition at top conc. (Ramos): 99.98%
pIC50 (Ramos): 5.75
% inhibition at top conc. (BT474; CTG): 67.02%
pIC50 (BT474; CTG): 4.18
% inhibition at top conc. (MDA-MB-231): 85.71%
% inhibition at top conc. (SNU-5): 97.87%
pIC50 (SNU-5): 5.61
% inhibition at top conc. (K-562; CTG): 97.45%
pIC50 (K-562; CTG): 5.22

pIC50 (NCI-H1417; Homo sapiens): 6.48
pIC50 (B16-F10; Mus musculus): 5.99
pIC50 (A549; [1]): 5.66
pIC50 (MDA-MB-453; Homo sapiens): 6.72
pIC50 (U266B1): 6.19
pIC50 (SK-MEL-28; Homo sapiens): 5.91
pIC50 (NCI-H1299; Homo sapiens): 5.47
pIC50 (MIA PaCa-2; Homo sapiens): 6.32
pIC50 (DLD-1; Homo sapiens): 5.29
pIC50 (SK-N-FI; Homo sapiens): 5.50
pIC50 (HT-1376; Homo sapiens): 5.64
pIC50 (SNU-761): 5.03
pIC50 (786-O; Homo sapiens, 786-0, CTG): 5.41
pIC50 (SW480; Homo sapiens): 5.76
pIC50 (Ramos; Homo sapiens): 6.49
pIC50 (BT474; Homo sapiens, BT-474, CTG): 6.29
pIC50 (MDA-MB-231; [1]): 5.74
pIC50 (SNU-5; Homo sapiens): 5.79
pIC50 (K-562; Homo sapiens, K562, CTG): 6.34
Structure (SMILES): Cc1ccc(C(=O)Nc2cc(N3CCNCC3)ccc2-c2ccc(/C=C/C(=O)NO)cc2C)cc1.Cl [ZZY-003]
% inhibition at top conc. (NCI-H1417): 97.14%
% inhibition at top conc. (HuCCT1; CTG): 99.88%
pIC50 (HuCCT1; Homo sapiens, HuCCT-1, CTG): 5.87
% inhibition at top conc. (B16-F10): 99.98%
% inhibition at top conc. (A549): 95.22%
% inhibition at top conc. (SF268; CTG): 99.82%
pIC50 (SF268; Homo sapiens, SF-268, CTG): 5.96
% inhibition at top conc. (MDA-MB-453): 99.93%
% inhibition at top conc. (AN3 CA): 99.92%
pIC50 (AN3 CA; Homo sapiens): 5.90
% inhibition at top conc. (LN-229): 99.97%
pIC50 (LN-229; Homo sapiens): 5.80
% inhibition at top conc. (U266B1): 98.03%
% inhibition at top conc. (SK-MEL-28): 99.89%
% inhibition at top conc. (NCI-H1299): 99.94%
% inhibition at top conc. (MIA PaCa-2): 99.94%
% inhibition at top conc. (DLD-1): 97.98%
% inhibition at top conc. (AMO-1; CTG): 99.95%
pIC50 (AMO-1; Homo sapiens, AMO1, CTG): 5.82
% inhibition at top conc. (CNE-2Z): 99.84%
pIC50 (CNE-2Z; Homo sapiens, CNE2Z): 5.82
% inhibition at top conc. (SK-N-FI): 99.95%
% inhibition at top conc. (HT-1376): 99.41%
% inhibition at top conc. (EBC-1): 92.30%
pIC50 (EBC-1; Homo sapiens): 5.94
% inhibition at top conc. (SNU-761): 99.35%
% inhibition at top conc. (Hep G2; CTG): 99.98%
pIC50 (Hep G2; Homo sapiens, HepG2, CTG): 6.08
% inhibition at top conc. (786-O; CTG): 99.96%
% inhibition at top conc. (MCF 10A): 97.73%
pIC50 (MCF 10A; Homo sapiens): 5.83
% inhibition at top conc. (H69AR): 96.23%
pIC50 (H69AR; Homo sapiens): 5.36
% inhibition at top conc. (SW480): 99.24%
% inhibition at top conc. (Ramos): 99.82%
% inhibition at top conc. (BT474; CTG): 99.86%
% inhibition at top conc. (MDA-MB-231): 92.06%
% inhibition at top conc. (SNU-5): 99.83%
% inhibition at top conc. (K-562; CTG): 99.85%
